Laboratory results as given in patent US20090023784A1, “USE OF DEFERIPRONE AND METHODS TO TREAT AND/OR PREVENT FRIEDREICH ATAXIA RESULTING FROM INTRACELLULAR MISHANDLING OF IRON” (priority 2006, published 2009).

Test: 52-week twice daily oral (gavage) toxicity study of deferiprone in non-iron-loaded monkeys
Assay type: in vivo, cynomolgus monkeys
Experimental: As part of a larger study on the potential toxicity of iron chelators, we evaluated the toxicity of deferiprone in normal monkeys receiving 150 mg/kg/day (75 mg/kg twice daily) for 1 year.
To determine the toxicity of deferiprone in non-iron-loaded cynomolgus monkeys following twice daily oral (gavage) administration for 52 consecutive weeks, and to evaluate the regression of any toxic effect during a 4-week treatment-free period.
Groups of 4 male and 4 female monkeys (2 to 3 years old) were dosed by nasogastric intubation at (0.5% w/v aqueous carboxymethylcellulose vehicle) 75 mg/kg deferiprone twice daily (bid), with 6-8 hours between doses, for at least 364 days.
Clinical signs, body weights and food intake were assessed at frequent intervals. Ophthalmological and cardiovascular examinations were carried out in Weeks 17, 30, 43, 56 and 60. Hematology, coagulation, clinical chemistry and urine parameters were measured at baseline and in Weeks 8, 16, 30, 41, 56 and 60. Blood samples were taken on the first day of dosing, and in Weeks 17 and 56 for assessment of the serum deferiprone time-concentration profile. A full necropsy was performed on each animal, selected organs weighed, and histopathological examination of abnormalities and selected tissues conducted.

SMILES: Cc1c(O)c(=O)ccn1C [Deferiprone, 3-hydroxy-1,2-dimethylpyridin-4-one]
- adverse effect (conclusion) (75 mg/kg twice daily orally for 52 weeks): without significant adverse effect
- Clinical signs (75 mg/kg twice daily, 52 weeks): incidental to administration of deferiprone by the IP route
- deferiprone-related effects on body weight, food intake, ophthalmology, cardiac conduction, blood pressure, heart rate, hematology or urine composition (75 mg/kg twice daily, oral gavage, 52 weeks): no deferiprone-related effects
- microscopic findings (75 mg/kg twice daily, oral gavage, 52 weeks, histopathology): No microscopic findings
- macroscopic findings (75 mg/kg twice daily, oral gavage, 52 weeks, necropsy): No macroscopic findings related to deferiprone
